Measurements as given in patent US9657043B2, “Amine compound and use thereof for medical purposes” (MITSUBISHI TANABE PHARMA CORPORATION, priority 2012, dated 2017).

test system: peripheral blood lymphocyte count; assay: Evaluation of peripheral blood lymphocyte count-decreasing effect in mice; format: in vivo, male BALB/c mice; settings: Mus musculus, ip, intraperitoneal administration, 24 hr after administration, in 20% cyclodextrin, read-out: ED50 (dose necessary for 50% reduction of the lymphocyte count of vehicle group as 100%)
Description: The compound of the present invention was dissolved or suspended in 20% cyclodextrin (manufactured by NIHON SHOKUHIN KAKO CO., LTD), and intraperitoneally administered to a 7- to 10-week-old male BALB/c mice (CHARLES RIVER LABORATORIES, JAPAN INC.) at a dose of 0.001-10 mg/kg body weight. After 24 hr from the administration of the compound of the present invention, peripheral blood (about 0.3 ml) was drawn from the postcava of the mouse with a heparin sodium (manufactured by NovoNordisk)-treated tuberculin syringe (manufactured by TERUMO CORPORATION) under ether anesthesia. The blood (0.1 ml) was hemolysed with an automatic hemolysis processing apparatus (TQ-Prep, manufactured by BECKMAN COULTER, Inc.), and the number of lymphocytes was counted with a Flow Cytometer (CYTOMICS FC 500, manufactured by BECKMAN COULTER, Inc.) by a gating method using scattering at the front and the side of the laser beam as indices and using Flow-Count™ Fluorospheres (manufactured by BECKMAN COULTER, Inc.), whose standard particle count is known, as internal standard. A dose necessary for 50% reduction of the lymphocyte count of vehicle group as 100% was calculated and used as ED50 value (mg/kg body weight).

SMILES	ED50 [mg/kg]
NC(CO)(CO)CCc1ccc2sc3ccc(Oc4cccc(C(F)(F)F)c4)cc3c(=O)c2c1 [Example 44, 2-[3-amino-4-hydroxy-3-(hydroxymethyl)butyl]-7-[3-(trifluoromethyl)phenoxy]-9H-thioxanthen-9-one]	0.01
COc1ccc(Oc2ccc3c(=O)c4ccc(CCC(N)(CO)CO)cc4oc3c2)cc1 [Example 143, 3-[3-amino-4-hydroxy-3-(hydroxymethyl)butyl]-6-(4-methoxyphenoxy)-9H-xanthen-9-one]	0.14
NC(CO)(CO)CCc1ccc2sc3ccc(Oc4cccc(Cl)c4)cc3c(=O)c2c1 [Example 76, 2-[3-amino-4-hydroxy-3-(hydroxymethyl)butyl]-7-(3-chlorophenoxy)-9H-thioxanthen-9-one]	0.04
Cl.NC(CO)(CO)CCc1ccc2oc3cc(-c4cccc(OC(F)(F)F)c4)ccc3c(=O)c2c1 [Example 164, 2-[3-amino-4-hydroxy-3-(hydroxymethyl)butyl]-6-[3-(trifluoromethoxy)phenyl]-9H-xanthen-9-one]	0.04
Cl.NC(CO)(CO)CCc1ccc2c(=O)c3cc(Oc4cccc(C(F)(F)F)c4)ccc3oc2c1 [Example 83, 6-[3-amino-4-hydroxy-3-(hydroxymethyl)butyl]-2-[3-(trifluoromethyl)phenoxy]-9H-xanthen-9-one]	0.05
CCCCCOc1ccc2oc3ccc(CCC(N)(CO)CO)cc3c(=O)c2c1 [Example 22, 2-[3-amino-4-hydroxy-3-(hydroxymethyl)butyl]-7-pentyloxy-9H-xanthen-9-one]	0.07
NC(CO)(CO)CCc1ccc2sc3cc(Oc4ccc(Cl)cc4)ccc3c(=O)c2c1 [Example 55, 2-[3-amino-4-hydroxy-3-(hydroxymethyl)butyl]-6-(4-chlorophenoxy)-9H-thioxanthen-9-one]	0.03
CCCCCOc1ccc2c(=O)c3ccc(CCC(N)(CO)CO)cc3oc2c1 [Example 41, 3-[3-amino-4-hydroxy-3-(hydroxymethyl)butyl]-6-pentyloxy-9H-xanthen-9-one]	0.37
COc1ccc(Oc2ccc3c(=O)c4cc(CCC(N)(CO)CO)ccc4oc3c2)cc1 [Example 108, 2-[3-amino-4-hydroxy-3-(hydroxymethyl)butyl]-6-(4-methoxyphenoxy)-9H-xanthen-9-one]	0.05
CCCC/C=C/c1ccc2oc3cc(CCC(N)(CO)CO)ccc3c(=O)c2c1 [Example 180, 6-[3-amino-4-hydroxy-3-(hydroxymethyl)butyl]-2-[(1E)-hex-1-en-1-yl]-9H-xanthen-9-one]	0.03
NC(CO)(CO)CCc1ccc2c(=O)c3cc(Oc4ccc(F)c(Cl)c4)ccc3oc2c1 [Example 138, 6-[3-amino-4-hydroxy-3-(hydroxymethyl)butyl]-2-(3-chloro-4-fluorophenoxy)-9H-xanthen-9-one]	0.06
NC(CO)(CO)CCc1ccc2oc3cc(Oc4ccc(F)c(Cl)c4)ccc3c(=O)c2c1 [Example 116, 2-[3-amino-4-hydroxy-3-(hydroxymethyl)butyl]-6-(3-chloro-4-fluorophenoxy)-9H-xanthen-9-one]	0.09
NC(CO)(CO)CCc1ccc2oc3cc(-c4cccc(C(F)(F)F)c4)ccc3c(=O)c2c1 [Example 172, 2-[3-amino-4-hydroxy-3-(hydroxymethyl)butyl]-6-[3-(trifluoromethyl)phenyl]-9H-xanthen-9-one]	0.09
CCCCCCOc1ccc2c(=O)c3ccc(CCC(N)(CO)CO)cc3sc2c1 [Example 20, 3-[3-amino-4-hydroxy-3-(hydroxymethyl)butyl]-6-hexyloxy-9H-thioxanthen-9-one]	0.05
CCCCCCOc1ccc2oc3ccc(CCC(N)(CO)CO)cc3c(=O)c2c1 [Example 23, 2-[3-amino-4-hydroxy-3-(hydroxymethyl)butyl]-7-hexyloxy-9H-xanthen-9-one]	0.03
NC(CO)(CO)CCc1ccc2oc3cc(Oc4ccc(F)cc4)ccc3c(=O)c2c1 [Example 105, 2-[3-amino-4-hydroxy-3-(hydroxymethyl)butyl]-6-(4-fluorophenoxy)-9H-xanthen-9-one]	0.22
NC(CO)(CO)CCc1ccc2sc3cc(Oc4cccc(C(F)(F)F)c4)ccc3c(=O)c2c1 [Example 54, 2-[3-amino-4-hydroxy-3-(hydroxymethyl)butyl]-6-[3-(trifluoromethyl)phenoxy]-9H-thioxanthen-9-one]	0.02
